Data taken from US20010016590A1, “Use of hydroxymatairesinol for prevention of cancers, non-cancer, hormone dependent diseases and cardiovascular diseases by hydroxymatairesinol, and a pharmaceutical preparation, food additive and food product comprising hydroxymatairesinol” (priority 1999, published 2001).

Experiments:
aromatase = molecular target: T1, aromatase (Homo sapiens, UniProt P11511); test: Aromatase inhibiting capacity in JEG-3 cells; format: cell-based; details: FIG. 1, enterolactone within 1.0 to 10.0 μM
T1 construct: 800 μl cell suspension (1 million cells); endogenous in cells; host or cells: JEG-3 human choriocarcinoma cells
T1 sequence (P11511 1-503): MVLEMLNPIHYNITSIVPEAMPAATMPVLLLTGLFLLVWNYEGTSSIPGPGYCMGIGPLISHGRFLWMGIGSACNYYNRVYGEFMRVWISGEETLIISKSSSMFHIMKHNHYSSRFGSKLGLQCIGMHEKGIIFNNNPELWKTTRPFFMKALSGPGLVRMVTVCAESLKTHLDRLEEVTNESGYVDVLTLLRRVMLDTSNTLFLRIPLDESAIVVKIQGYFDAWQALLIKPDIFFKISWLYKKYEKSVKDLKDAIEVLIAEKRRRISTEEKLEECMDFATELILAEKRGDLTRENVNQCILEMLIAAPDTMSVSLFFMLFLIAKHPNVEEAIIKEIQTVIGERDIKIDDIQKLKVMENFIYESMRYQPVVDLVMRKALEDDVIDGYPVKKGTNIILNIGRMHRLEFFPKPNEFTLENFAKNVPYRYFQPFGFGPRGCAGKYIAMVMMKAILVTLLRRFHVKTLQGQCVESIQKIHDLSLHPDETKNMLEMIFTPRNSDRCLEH
Method: The effects of HMR and structurally related lignans (enterolactone, enterodiol and 7-hydroxyenterolactone) were studied on formation of ^3H-17β-estradiol from ^3H-andostenedione in JEG-3 cells, human choriocarcinoma cell line. […] Cells were maintained in DMEM containing 10% fetal calf serum (FCS). The incubation mixture contained 50 μl ^3H-androst-4-ene, 3,17-dione (0.5 nM), 50 μl unlabelled androstenedione (0.5 nM), 100 μl test compounds (10 mM) and 800 μl cell suspension (1 million cells). After the incubation for 4 h, unlabelled carriers (androstenedione, testosterone, 17β-estradiol and estrone) were added. The steroids were extracted twice with 3.0 ml dichloromethane. […] The column system consisted of a guard column followed by a C18 150×3.9 mm ID analytical column (Technopak 10 C18 HPLC Technology; Wellington House, Cheshire, UK). The mobile phase was acetonitrile /water (35/65) and the flow rate was 1.2 ml/min. For in-line detection of the radioactive metabolites, the eluent of the HPCL column was continuously mixed with liquid scintillant and then monitored with in-line radioactivity detector.

[1] = tested on: DMBA-induced mammary gland tumors; test: Antitumor activity in rat DMBA-induced mammary cancer model; format: in vivo
Method: Antitumor activity of HMR in rat mammary cancer was studied as described earlier ([…] et al. 1986). Fifty-day-old female Sprague-Dawley rats were given 12.0 mg DMBA (dimethylbentz[a]anthracene) by […]. After approximately 6 weeks palpable tumors could be detected, whereafter the width (w) and the length (1) of the tumors were measured once a week to determine the tumor volumes according to a formula V=(πw^21)/12. The rats were also weighed once a week. The rats were allocated in 3 different groups so that the total number of tumors in the beginning of the experiment was similar in each group: (1) Control group 8 animals, (2) HMR 3.0 mg/kg 7 animals, and (3) HMR 15.0 mg/kg 7 animals, one of which had to be killed before the end of the experiment. HMR was given per os starting 9 weeks after the DMBA-induction, i.e. 3 weeks after palpable tumors appeared, and was given daily for 7.5 weeks. At the end of the experiment the tumors were classified in groups according to their growth pattern: 1. Growing tumors (PD=progressive disease); 2. Non-growing, stabilized tumors (SD=stabilized disease, no change in tumor volume or regression less than 75%; 3. Regressing tumors (PR=partial response, regression of tumor volume more than 75%); 4. Disappeared tumors (CR=complete response, no palpable tumor).

[2] = tested on: uterine growth of immature rats; test: Immature rat uterotropic test; format: in vivo; details: 7 days treatment, FIG. 3
Method: The estrogenicity HMR was evaluated by the uterotropic assay in immature rats which was performed as described earlier (Jordan et al. 1977), with the exception of treatment time which was 7 days instead of 3 days in the reference study. The treatment time was longer because of the expected weak estrogenicity of the test compound. The treatment of immature rats with an aromatase inhibitor (MPV-2213ad), which prevents biosynthesis of estradiol, was used as a methodological control for non-estrogen-stimulated uterus.

[3] = tested on: intact Noble strain male rats; test: Estrogenic (antiandrogenic) activity in intact adult male rats; format: in vivo, rat
Method: (§1) Estrogenic (anfiandrogenic) and antiestrogenic effects of HMR were studied in intact and hypoandrogenic Noble strain male rats (age 6-9 month), correspondingly. The chronic hypoandrogenic state with both structural and functional changes in the male reproductive tract was induced by neonatal estrogenization (diethylstilbestrol, 10.0 μg/kg body weight in rape oil s.c. on postnatal days 1-5). These changes are known to be partly reversible by aromatase inhibitor treatment consisting daily dose of MPV-2213 ad 10-30 mg/kg body weight (Streng et al. unpublished observations).
(§2) Twelve of both intact and hypoandrogenic animals were cavaged in daily dosage of HMR 50 mg/kg body weight in rape oil. Another twelve animals from both animal models were cavaged with rape oil only as a placebo treatment. After four-week treatment the animals were sacrificed. The weights of testis and accessory sex glands (ventral prostate, seminal vesicles and coagulating gland) were measured. Serum and testis testosterone and pituitary and serum luteinizing hormone (LH) levels were measured by immunoassays (Haavisto et al. 1993).

[4] = tested on: hypoandrogenic Noble strain male rats; test: Antiestrogenic activity in hypoandrogenic (neonatally estrogenized) adult male rats; format: in vivo, rat; details: hypoandrogenic animals
Method: as §1, §2

MCF-7 cells = test: Estrogenic and antiestrogenic activity in MCF-7 cell proliferation assay; format: cell-based, human; details: FIG. 2
Method: The MCF-7 cell line (human breast cancer cells) stock cultures were grown in phenol red free RPMI medium supplemented with 5 % FCS, 100 U/ml penicillin and 100 μg/ml streptomycin, 10 μg/ml insulin and 1 nM 17μ-estradiol in T-75 cell culture bottles. The medium was replaced with fresh ones three times per week. The stock cultures were harvested by trypsinization and suspended in 10 ml phenol red free versene solution and centrifuged for 5 min 800 rpm. The cell pellet was carefully resuspended into RPMI medium supplemented with 5% dextran charcoal stripped FCS (dcFCS) and seeded on 6 well plates 50 000 cells/ 3.0 ml medium/ well. On the second day of culture the medium was changed and test compounds were added. To test the estrogenicity of the lignan compounds, they were diluted in ethanol and added to cell cultures in final concentration of […]. In each proliferation assay 1.0 nM 1 7β-estradiol solution in ethanol was used as a positive control for estrogenic response. Equal amounts of ethanol were added to control wells. To test the antiestrogenicity both 17β-estradiol and lignan solutions were added to cell cultures. The cells were cultured for 5 to 7 days in the presence of test compounds, and the medium was changed every second day. Cell proliferation was quantified by counting the released nuclei with Coulter counter.

[5] = tested on: antiestrogen-sensitive DMBA-induced breast cancer; details: supplementation of a high-fat diet; flaxseed flour 5% or 10%; Serraino and Thompson; Thompson et al.; cited from earlier work
uterine weight = details: feeding during pregnancy and lactation to rats; not evident at later stages; Tou et al. 1998; cited from earlier work
[6] = tested on: chemically induced aberrant crypts in rat colon; details: Serraino and Thompson 1992, Jenab and Thompson 1996; cited from earlier work
[7] = intact animals, 50 mg/kg HMR, four week exposure, mean

With `O=C1OC[C@H](Cc2cccc(O)c2)[C@H]1[C@@H](O)c1cccc(O)c1` [7-hydroxyenterolactone] the “Inhibition of 3H-17β-estradiol formation from 3H-androstenedione (aromatization)” value (from here on “Inhibition of 3H-17β-estradiol formation”) (aromatase) was “no inhibitory effects”.

For `COc1cc(CC2C(=O)OCC2C(O)c2ccc(O)c(OC)c2)ccc1O` (stereo not shown) [HMR, hydroxymatairesinol], the “Dose-dependency of antitumor action” value ([1]; 3.0 vs 15.0 mg/kg) was “no clear dose-dependency”, the “Antitumor effect (growing PD versus SD, PR, CR tumors)” value ([1]; HMR 3.0 and 15.0 mg/kg per os daily for 7.5 weeks, FIG. 4) was “statistically very significant” and the “Estrogenic effect on the uterine weight gain” value [2] was “no significant estrogenic effect”. For the same compound, the “Changes in the weights of accessory sex glands and testis vs placebo” value ([3]; control (intact) animals, 4-week treatment) was “no significant changes”, the Pituitary LH [3, 7] was 6.84 µg/pit and the Serum LH [3, 7] was 1.09 ng/mL. For the same compound, the Serum testosterone [3, 7] was 2.77 ng/mL, the “Changes in testosterone or LH concentrations vs placebo” value ([3]; intact animals, 4-week treatment) was “no significant changes” and the Pituitary LH ([4]; 50 mg/kg HMR, four week exposure, mean) was 7.53 µg/pit. The “Changes in testosterone or LH concentrations vs placebo” value ([4]; 4-week treatment) was “no significant changes”, the “Changes in the weights of accessory sex glands and testis vs placebo” value ([4]; 4-week treatment) was “no significant changes” and the “Estrogenic or antiestrogenic activity in MCF-7 cell proliferation” value (MCF-7 cells) was “very weak, not statistically significant”. For the same compound, the “Inhibition of 3H-17β-estradiol formation” value (aromatase) was “no inhibitory effects”.

In the case of `OCC(Cc1cccc(O)c1)C(CO)Cc1cccc(O)c1` (stereo not shown) [enterodiol, 2,3-bis-(3’-hydroxybenzyl)-butane-1,4-diol], the “Inhibition of 3H-17β-estradiol formation” value (aromatase) is reported as “noninhibitory”.

For `O=C1OCC(Cc2cccc(O)c2)C1Cc1cccc(O)c1` (stereo not shown) [enterolactone, 2,3-bis-(3’-hydroxybenzyl)-butyrolactone], the “Inhibition of 3H-17β-estradiol formation” value (aromatase) was “dose-dependent inhibition”.

For secoisolariciresinol-diglycoside [SDG], the “Development of DMBA-induced breast cancer” value [5] is given as “prevented the development”, the “Uterine weight (estrogen-like activity)” value (uterine weight) is given as “increased the uterine weight at weaning” and the “Formation of chemically induced aberrant crypts” value [6] is given as “inhibited”.
